Test results reported in patent publication US8329645B2, “Polymyxin derivatives and uses thereof” (priority 2008, dated 2012).
Values after ≈ are worked out from the molar mass of the structure shown. Where two headings read alike, the source gives them in different places. Where a SMILES comes first, the peptide text is derived from it. Bridges are numbered along the chain shown (N, C = ends). [ ]: non-standard residue; d: D form. The star is where a group is joined. Octanoyl = CCCCCCCC(=O)*; Dab = NCC[C@H](N)C(=O)O

Experiments:
A. baumannii ATCC 19606 [1] = experiment: Sensitization to rifampin: growth inhibition around wells on LB plates containing rifampin; format: cell-based, Acinetobacter baumannii; conditions: 4 μg
[2] = system: Ps. aeruginosa ATCC 27853; experiment: as above; format: cell-based, Pseudomonas aeruginosa; conditions: 4 μg
A. baumannii ATCC 19606 [3] = system: A. baumannii ATCC 19606
Protocol: (§1) Polymyxin B sulfate (Sigma-Aldrich, St. Louis, Mo., USA) was used as a control. […] The bacterial test strains originated from ATCC (10 strains), CCUG (11 strains), and NCTC (3 strains). Fourteen (14) strains (the F-strains) were purchased from Mobidiag Ltd., Helsinki, Finland.
(§2) The inocula were prepared by adjusting the bacterial suspensions to a density equivalent to OD546 nm˜0.3 (˜10^8 CFU/ml˜0.5 McFarland) the yeast suspension to a density equivalent to OD546 nm˜0.75 (˜2×10^7 CFU/ml)._The suspensions were diluted to 10^7 CFU/ml. The plates were inoculated by using a Denley Multipoint Inoculator, 1 μl per spot corresponding to approx. 10^4 CFU/spot. Plates were incubated for 16-20 hours at 35° C.

A. baumannii F263 = system: A. baumannii F263
Protocol: as §1, §2

A. baumannii F264 = system: A. baumannii F264
Protocol: as §1, §2

C. albicans ATCC 28366 = system: C. albicans ATCC 28366
Protocol: as §1, §2

C. freundii ATCC 8090 = system: C. freundii ATCC 8090
Protocol: as §1, §2

E. cloacae ATCC 23355 = system: E. cloacae ATCC 23355
Protocol: as §1, §2

E. cloacae CCUG 52947 = system: E. cloacae CCUG 52947
Protocol: as §1, §2

E. cloacae F230 = system: E. cloacae F230
Protocol: as §1, §2

E. cloacae F231 = system: E. cloacae F231
Protocol: as §1, §2

E. cloacae F232 = system: E. cloacae F232
Protocol: as §1, §2

E. coli ATCC 25922 = system: E. coli ATCC 25922
Protocol: as §1, §2

E. coli CCUG 41422 = system: E. coli CCUG 41422
Protocol: as §1, §2

E. coli CCUG 41424 = system: E. coli CCUG 41424
Protocol: as §1, §2

E. coli CCUG 41425 = system: E. coli CCUG 41425
Protocol: as §1, §2

E. coli CCUG 41427 = system: E. coli CCUG 41427
Protocol: as §1, §2

E. coli CCUG 41429 = system: E. coli CCUG 41429
Protocol: as §1, §2

E. coli CCUG 41432 = system: E. coli CCUG 41432
Protocol: as §1, §2

E. coli F10 = system: E. coli F10
Protocol: as §1, §2

E. coli F19 = system: E. coli F19
Protocol: as §1, §2

E. coli F8 = system: E. coli F8
Protocol: as §1, §2

E. coli F9 = system: E. coli F9
Protocol: as §1, §2

E. coli IH3080 = system: E. coli IH3080
Protocol: as §1, §2

E. coli NCTC 13352 = system: E. coli NCTC 13352
Protocol: as §1, §2

E. coli NCTC 13353 = system: E. coli NCTC 13353
Protocol: as §1, §2

K. oxytoca ATCC 13182 = system: K. oxytoca ATCC 13182
Protocol: as §1, §2

K. oxytoca CCUG 51683 = system: K. oxytoca CCUG 51683
Protocol: as §1, §2

K. pneumoniae F136 = system: K. pneumoniae F136
Protocol: as §1, §2

K. pneumoniae F145 = system: K. pneumoniae F145
Protocol: as §1, §2

P. aeruginosa ATCC 27853 = system: P. aeruginosa ATCC 27853
Protocol: as §1, §2

P. aeruginosa CCUG 51971 = system: P. aeruginosa CCUG 51971
Protocol: as §1, §2

P. aeruginosa F58 = system: P. aeruginosa F58
Protocol: as §1, §2

S. aureus ATCC 25923 = system: S. aureus ATCC 25923
Protocol: as §1, §2

[4] = system: S. maltophilia ATCC 17444
Protocol: as §1, §2

S. marcescens ATCC 8100 = system: S. marcescens ATCC 8100
Protocol: as §1, §2

E. coli NCTC 13351 = conditions: E. coli NCTC13351
Protocol: as §1, §2

K. pneumoniae ATCC 13883 = conditions: K. pneumoniae ATCC13883
Protocol: as §1, §2

K. pneumoniae CCUG 45421 = conditions: K. pneumoniae CCUG45421
Protocol: as §1, §2

K. pneumoniae F144 = conditions: K. pneumoniae F144
Protocol: as §1, §2

## CCCCCCCC(=O)N[C@H](C(=O)N[C@H](CO)C(=O)N[C@H]1CCNC(=O)[C@H]([C@@H](C)O)NC(=O)[C@H](CCN)NC(=O)[C@H](CCN)NC(=O)[C@H](CC(C)C)NC(=O)[C@@H](Cc2ccccc2)NC(=O)[C@H](CCN)NC1=O)[C@@H](C)O [NAB 739, OA-Thr-DSer-cy[Dab-Dab-DPhe-Leu-Dab-Dab-Thr-]] (Octanoyl-T[dS][Dab][Dab][dF]L[Dab][Dab]T; lactam 3-C)
A. baumannii ATCC 19606 [1]; rifampin 0 μg/ml
  growth inhibition around a well in the presence of rifampin: 113 square millimeters
A. baumannii ATCC 19606 [1]; rifampin 0.1 μg/ml
  growth inhibition around a well in the presence of rifampin: 177 square millimeters
A. baumannii ATCC 19606 [1]; rifampin 0.3 μg/ml
  growth inhibition around a well in the presence of rifampin: 314 square millimeters
[2]; rifampin 0 μg/ml
  growth inhibition around a well in the presence of rifampin: 38 square millimeters
[2]; rifampin 0.3 μg/ml
  growth inhibition around a well in the presence of rifampin: 64 square millimeters
A. baumannii ATCC 19606 [3]; ATCC 19606
  MIC: 8 mg/L (≈ 7.43 µM)
A. baumannii F263; F263
  MIC: 4 mg/L (≈ 3.72 µM)
A. baumannii F264; F264
  MIC: 4 mg/L (≈ 3.72 µM)
C. albicans ATCC 28366; ATCC 28366
  MIC: >32 mg/L
C. freundii ATCC 8090; ATCC 8090
  MIC: 2 mg/L (≈ 1.86 µM)
E. cloacae ATCC 23355; ATCC 23355
  MIC: 2 mg/L (≈ 1.86 µM)
E. cloacae CCUG 52947; CCUG 52947
  MIC: 2 mg/L (≈ 1.86 µM)
E. cloacae F230; F230
  MIC: 2 mg/L (≈ 1.86 µM)
E. cloacae F231; F231
  MIC: 2 mg/L (≈ 1.86 µM)
E. cloacae F232; F232
  MIC: 2 mg/L (≈ 1.86 µM)
E. coli ATCC 25922; ATCC 25922
  MIC: 1 mg/L (≈ 0.929 µM)
E. coli CCUG 41422
  MIC: 1 mg/L (≈ 0.929 µM)
E. coli CCUG 41424; CCUG 41424
  MIC: 1 mg/L (≈ 0.929 µM)
E. coli CCUG 41425; CCUG 41425
  MIC: 1 mg/L (≈ 0.929 µM)
E. coli CCUG 41427; CCUG 41427
  MIC: 1 mg/L (≈ 0.929 µM)
E. coli CCUG 41429; CCUG 41429
  MIC: 1 mg/L (≈ 0.929 µM)
E. coli CCUG 41432; CCUG 41432
  MIC: 1 mg/L (≈ 0.929 µM)
E. coli F10; F10
  MIC: 1 mg/L (≈ 0.929 µM)
E. coli F19; F19
  MIC: 0.5 mg/L (≈ 0.465 µM)
E. coli F8; F8
  MIC: 1 mg/L (≈ 0.929 µM)
E. coli F9; F9
  MIC: 1 mg/L (≈ 0.929 µM)
E. coli IH3080; IH3080
  MIC: 1 mg/L (≈ 0.929 µM)
E. coli NCTC 13352; NCTC 13352
  MIC: 1 mg/L (≈ 0.929 µM)
E. coli NCTC 13353; NCTC 13353
  MIC: 1 mg/L (≈ 0.929 µM)
K. oxytoca ATCC 13182; ATCC 13182
  MIC: 2 mg/L (≈ 1.86 µM)
K. oxytoca CCUG 51683; CCUG 51683
  MIC: 2 mg/L (≈ 1.86 µM)
K. pneumoniae F136; F136
  MIC: 1 mg/L (≈ 0.929 µM)
K. pneumoniae F145; F145
  MIC: 2 mg/L (≈ 1.86 µM)
P. aeruginosa ATCC 27853; ATCC 27853
  MIC: 8 mg/L (≈ 7.43 µM)
P. aeruginosa CCUG 51971
  MIC: 8 mg/L (≈ 7.43 µM)
P. aeruginosa F58; F58
  MIC: 8 mg/L (≈ 7.43 µM)
S. aureus ATCC 25923; ATCC 25923
  MIC: >32 mg/L
[4]; ATCC 17444
  MIC: 16 mg/L (≈ 14.9 µM)
S. marcescens ATCC 8100; ATCC 8100
  MIC: >32 mg/L

## Polymyxin B [reference compound]
A. baumannii ATCC 19606 [3]; A. baumannii ATCC 19606
  MIC: 1 mg/L
A. baumannii F263; A. baumannii F263
  MIC: 1 mg/L
A. baumannii F264; A. baumannii F264
  MIC: 0.5 mg/L
C. albicans ATCC 28366; C. albicans ATCC 28366
  MIC: >32 mg/L
C. freundii ATCC 8090; C. freundii ATCC8090
  MIC: 1 mg/L
E. cloacae ATCC 23355; E. cloacae ATCC23355
  MIC: 0.5 mg/L
E. cloacae CCUG 52947; E. cloacae CCUG52947
  MIC: 1 mg/L
E. cloacae F230; E. cloacae F230
  MIC: 0.5 mg/L
E. cloacae F231; E. cloacae F231
  MIC: 0.5 mg/L
E. cloacae F232; E. cloacae F232
  MIC: 0.5 mg/L
E. coli ATCC 25922; E. coli ATCC25922
  MIC: 1 mg/L
E. coli CCUG 41424; E. coli CCUG41424
  MIC: 1 mg/L
E. coli CCUG 41425; E. coli CCUG41425
  MIC: 0.5 mg/L
E. coli CCUG 41427; E. coli CCUG41427
  MIC: 1 mg/L
E. coli CCUG 41429; E. coli CCUG41429
  MIC: 1 mg/L
E. coli CCUG 41432; E. coli CCUG41432
  MIC: 1 mg/L
E. coli F10; E. coli F10
  MIC: 0.5 mg/L
E. coli F19; E. coli F19
  MIC: 1 mg/L
E. coli F8; E. coli F8
  MIC: 1 mg/L
E. coli F9; E. coli F9
  MIC: 0.5 mg/L
E. coli IH3080; E. coli IH3080
  MIC: 0.5 mg/L
E. coli NCTC 13351
  MIC: 0.5 mg/L
E. coli NCTC 13352; E. coli NCTC 13352
  MIC: 0.25 mg/L
E. coli NCTC 13353; E. coli NCTC13353
  MIC: 1 mg/L
K. oxytoca ATCC 13182; K. oxytoca ATCC13182
  MIC: 0.5 mg/L
K. oxytoca CCUG 51683; K. oxytoca CCUG51683
  MIC: 0.5 mg/L
K. pneumoniae ATCC 13883
  MIC: 32(−8) μg/ml
K. pneumoniae CCUG 45421
  MIC: 1 mg/L
K. pneumoniae F136; K. pneumoniae F136
  MIC: 0.5 mg/L
K. pneumoniae F144
  MIC: 1 mg/L
K. pneumoniae F145; K. pneumoniae F145
  MIC: 0.5 mg/L
P. aeruginosa ATCC 27853; P. aeruginosa ATCC27853
  MIC: 1 mg/L
P. aeruginosa F58; P. aeruginosa F58
  MIC: 0.5 mg/L
S. aureus ATCC 25923; S. aureus ATCC 25923
  MIC: >32 mg/L
[4]; S. maltophilia ATCC17444
  MIC: 1 mg/L
S. marcescens ATCC 8100; S. marcescens ATCC8100
  MIC: >32 mg/L
